In patent publication US5037830A, “Novel thiouracyl derivatives, pharmaceutical compositions containing them and process for preparing same” (Richter Gedeon Vegyeszeti Gyar RT, priority 1989, dated 1991):

Columns and labels:
[1] = system: histamine-induced gastric acid secretion; assay: Inhibition of the histamine-induced gastric acid secretion in dogs; type: in vivo, Beagle dogs
Method: (§1) After being starved for 24 hours, Beagle dogs of both sexes weighing 6.3 to 11.9 kg were anaesthetized with sodium pentobarbital (30 mg/kg i.v.). The trachea and femoral veins on both sides were cannulated. After laparotomy the pylorus was ligated, a glass cannula was placed into the anterior side of the stomach and fixed by a purse string suture to the stomach wall, abdominal wall and abdominal skin. A rubber probe was introduced to the stomach through the mouth. The animal thus prepared was put onto a Pavlov's frame. The steady sleep was ensured by the infusion of sodium pentobarbital (5 mg/kg/hour). The stomach was washed with lukewarm water and emptied. The secretion-inducing agents (histamine, pentagastrin, carbachol) were administered in a volume of 12 ml/hour for 2 hours in the following doses:
(§2) After 2 hours the infusion was stopped, the volume of the gastric juice produced was measured and its acid content was determined by titration with 0.1N NaOH by using Topfer's indicator. The compound of Example 1 was administered in a 25 mg/kg i.p. dose to the animals by 30 minutes before starting the infusion.

[2] = system: pentagastrin-induced gastric acid secretion; assay: Inhibition of the pentagastrin-induced gastric acid secretion in dogs; type: in vivo, Beagle dogs
Method: as §1, §2

[3] = system: carbachol-induced gastric acid secretion; assay: Inhibition of the carbachol-induced gastric acid secretion in dogs; type: in vivo, Beagle dogs
Method: as §1, §2

[4] = system: necrosis induced by ethanol containing hydrochloric acid; assay: Cytoprotective effect (modified Robert's test); type: in vivo; conditions: for Bleedings, change: vs control; for ED50: po, cytoprotection
Method: The modified Robert's test [Gastroenterology 17, 761 (1979)] was used. The necrotizing agent (100 ml of abs. ethanol containing 2 ml of concentrated hydrochloric acid) was orally administered in a volume of 0.5 ml/100 g by 30 minutes after giving the compound to be tested. (12 animals were used for each dose.) After 1 hour the animals were killed by ether and the bleedings on the glandular part of their stomach were evaluated.

[5] = system: acetic acid-induced chronic ulcer; assay: Recovery-influencing effect on the acetic acid-induced chronic ulcer; type: in vivo, female RG-Wistar rats; conditions: for increase in the recovery: 15 mg/kg oral dose, daily twice for 15 days
Method: After anaesthesia by ether and laparotomy, 50 μl of 20% acetic acid were injected into the stomach wall of female RG-Wistar rats. After 5 days the animals were orally treated with the compounds to be tested daily twice for 15 days. On the 16th day the animals were killed by ether and the size of the ulcers appearing on the stomach was measured. The grade of recovery was defined in relation to the control group.

[6] = 25 mg/kg i.p. + Histamine 0.1 mg/kg/hr
[7] = 25 mg/kg i.p. + Pentagastrin 0.03 mg/kg/hr
[8] = 25 mg/kg i.p. + Carbachol 0.02 mg/kg/hr

SMILES: Cc1cc(=O)[nH]c(SCc2ccccc2N(C)C)n1 [Example 1, 2-(2-dimethylaminobenzyl)thio-6-methyl-4(3H)-pyrimidinone]
- Gastric acid volume [1, 6]: 3.90 ml/kg/2 hr
- Gastric acid, change [1, 6]: -75%
- Gastric juice volume [1, 6]: 3.85 ml/kg/2 hr
- Gastric juice, change [1, 6]: -69%
- inhibition of gastric acid secretion, in words ([1]; dogs compared with rats, histamine): with the same efficiency in dogs as in rats
- Gastric acid volume [2, 7]: 1.43 ± 0.77 ml/kg/2 hr
- Gastric acid, change [2, 7]: -76%
- Gastric juice volume [2, 7]: 2.90 ± 0.48 ml/kg/2 hr
- Gastric juice, change [2, 7]: -54%
- inhibition of gastric acid secretion, in words ([2]; dogs compared with rats, pentagastrin): with the same efficiency in dogs as in rats
- Gastric acid volume [3, 8]: 1.84 ± 0.74 ml/kg/2 hr
- Gastric acid, change [3, 8]: -80%
- Gastric juice volume [3, 8]: 2.55 ± 0.79 ml/kg/2 hr
- Gastric juice, change [3, 8]: -69%
- inhibition of gastric acid secretion, in words ([3]; dogs compared with rats, carbachol): with the same efficiency in dogs as in rats
- Bleedings, treated ([4]; 10 mg/kg p.o.): 62.0 mm
- Bleedings, change ([4]; 10 mg/kg p.o.): -38.7%
- Bleedings, treated ([4]; 20 mg/kg p.o.): 42.1 mm
- Bleedings, change ([4]; 20 mg/kg p.o.): -56.9%
- Bleedings, treated ([4]; 40 mg/kg p.o.): 10.9 mm
- Bleedings, change ([4]; 40 mg/kg p.o.): -89.6%
- ED50 [4]: 14.5 mg/kg
- increase in the recovery [5]: 45%
- recovery from developed gastric ulcers, in words ([5]; compared with reference drug): better results were achieved in the recovery from developed gastric ulcers

SMILES: CN(C)c1ccccc1C[S+]([O-])c1nc2ccccc2[nH]1 (centres unmarked) [NC-1300, 2-[(2-dimethylaminobenzyl)sulfinyl]-1H-benzimidazole, reference compound]
- Bleedings, treated ([4]; 5 mg/kg p.o.): 84.4 mm
- Bleedings, change ([4]; 5 mg/kg p.o.): -21.7%
- Bleedings, treated ([4]; 10 mg/kg p.o.): 42.25 mm
- Bleedings, change ([4]; 10 mg/kg p.o.): -60.8%
- Bleedings, treated ([4]; 20 mg/kg p.o.): 11.65 mm
- Bleedings, change ([4]; 20 mg/kg p.o.): -86.0%
- ED50 [4]: 8.6 mg/kg
- increase in the recovery [5]: 37%
